Source: EPA's ToxValDB 9.5

Assays:
[1] = test system: Rattus norvegicus
[2] = test system: Canidae
[3] = reproduction developmental, histopathology: nonneoplastic
[4] = subchronic, duration: 90 days, oral, diet, M/F, Sprague-Dawley, no effects
[5] = subchronic, duration: 90 days, clinical chemistry
[6] = subchronic, duration: 90 days, oral, diet, Wistar, no effects
[7] = chronic, duration: 2 years, M/F, clinical chemistry
[8] = subchronic, duration: 90 days, oral, diet, M/F, no effects

Cc1ccc(C(=O)c2ccccc2)cc1 [4-Methylbenzophenone]
LOAEL [1, 3]: 6 mg/kg-day

ClC1=C(Cl)[C@]2(Cl)[C@@H]3[C@@H]4C[C@@H]([C@H]5O[C@@H]45)[C@@H]3[C@@]1(Cl)C2(Cl)Cl [Dieldrin]
LD50 ([1]; acute, oral, mortality): 25 mg/kg-day

CCCNC(=O)C(C)(C)COc1cccc2c1C(N)=NS(=O)(=O)N2
NOAEL [1, 4]: 20 mg/kg-day

c1ccc(Oc2ccccc2)cc1 [Diphenyl oxide]
NOAEL ([1]; subchronic, duration: 90 days, oral, body weight): 15 mg/kg-day

O=P(c1ccccc1)(c1ccccc1)c1ccccc1 [Triphenylphosphine oxide]
NOEL [1, 5]: 2 mg/kg-day

C/C=C/C=C/C(=O)[O-].[K+] [Potassium (E,E)-hexa-2,4-dienoate]
NOAEL ([1]; reproduction developmental, oral, gavage, M/F, Crj:CD, body weight): 300 mg/kg-day

NC(=O)c1ccc[n+]([C@@H]2O[C@H](CO)[C@@H](O)[C@H]2O)c1.[Cl-] [Nicotinamide riboside chloride]
NOAEL ([2]; short-term, duration: 28 days, oral, gavage, M/F, Beagle, clinical chemistry): 300 mg/kg-day
NOAEL ([1]; developmental, duration: 15 days, oral, gavage, F, Sprague-Dawley, development): 325 mg/kg-day
NOAEL ([1]; subchronic, duration: 90 days, oral, gavage, M/F, Sprague-Dawley, body weight): 300 mg/kg-day

CC/C=C/CCOC(=O)C(CC)CC [Hex-3-enyl 2-ethylbutanoate]
NOAEL ([1]; reproduction developmental, duration: 10 days, oral, gavage, F, Sprague-Dawley, no effects): 200 mg/kg-day
NOAEL ([1]; reproduction developmental, duration: 10 days, oral, gavage, F, no effects): 200 mg/kg-day

Cc1occc1SSCc1ccco1 [Furfuryl 2-methyl-3-furyl disulfide]
NOAEL [1, 6]: 0.45 mg/kg-day

CCCCOC(=O)c1ccccc1C(=O)OCc1ccccc1 [Benzyl butyl phthalate]
NOAEL ([1]; developmental, oral, diet, M/F, development): 50 mg/kg-day

CCOC(=O)C1OC1(C)c1ccccc1 (stereo unspecified) [Ethyl methylphenylglycidate]
NOAEL [1, 7]: 35 mg/kg-day

CC(C)(CO)C1OCC2(CO1)COC(C(C)(C)CO)OC2 (stereo unspecified)
NOAEL ([1]; subchronic, duration: 90 days, oral, M/F, Sprague-Dawley, no effects): 2000 mg/kg-day

OCc1ccccc1 [Benzyl alcohol]
NOAEL ([1]; chronic, duration: 103 weeks, oral, gavage, M/F, no effects): 400 mg/kg-day

O=S(=O)([O-])c1ccc2c(N=Nc3ccc(S(=O)(=O)[O-])c4ccccc34)c(O)c(S(=O)(=O)[O-])cc2c1.[Na+].[Na+].[Na+] [Amaranth]
NOAEL ([1]; developmental, duration: 19 days, oral, gavage, F, Osborne-Mendel, development): 15 mg/kg-day

CCCCC(CC)COC(=O)c1ccc(C(=O)OCC(CC)CCCC)c(C(=O)OCC(CC)CCCC)c1 (stereo unspecified) [Tris(2-ethylhexyl) trimellitate]
NOAEL ([1]; subchronic, duration: 90 days, oral, diet, M/F, Sprague-Dawley, organ weight): 225 mg/kg-day

Cc1cc(SSc2cc(C)oc2C)c(C)o1 [Furan, 3,3'-dithiobis[2,5-dimethyl-]
NOAEL ([1]; subchronic, duration: 90 days, no effects): 0.29 mg/kg-day

CC(C)CCCCCCOC(=O)C1CCCCC1C(=O)OCCCCCCC(C)C (stereo unspecified) [Diisononyl cyclohexane-1,2-dicarboxylate]
NOAEL ([1]; subchronic, duration: 13 weeks, M/F, Wistar, clinical chemistry): 100 mg/kg-day

CC(C)=CCCC(C)C=O (stereo unspecified) [2,6-Dimethylhept-5-enal]
NOAEL ([1]; subchronic, duration: 3 months, oral, diet, M/F, organ weight): 37 mg/kg-day

CC(=O)N[C@H]1[C@H](O[C@H]2[C@@H](O)[C@@H](CO)O[C@@H](O[C@@H]([C@H](O)[C@@H](O)C=O)[C@H](O)CO)[C@@H]2O)O[C@H](CO)[C@@H](O[C@@H]2O[C@H](CO)[C@H](O)[C@H](O)[C@H]2O)[C@@H]1O [Lacto-N-neotetraose]
NOAEL ([1]; subchronic, duration: 90 days, oral, gavage, M/F, Wistar, hematological): 2500 mg/kg-day

CN(C)C [Trimethylamine]
NOAEL ([1]; subchronic, duration: 90 days): 90 mg/kg-day

Cc1ccc2ncccc2c1 [6-Methylquinoline]
NOAEL [1, 8]: 2.2 mg/kg-day

CC(C)CCCCCCCOC(=O)c1ccccc1C(=O)OCCCCCCCC(C)C [Diisodecyl phthalate]
NOAEL ([2]; subchronic, duration: 13 weeks, Dog Other, histopathology: nonneoplastic): 15 mg/kg-day

O=C(c1ccccc1)c1ccccc1 [Benzophenone]
LOAEL [1, 3]: 6 mg/kg-day

COc1cc(COC(=O)CCCCCCC(C)C)ccc1O [Dihydrocapsiate]
NOAEL ([1]; chronic, duration: 26 weeks, oral, gavage, M/F, Sprague-Dawley, histopathology: nonneoplastic): 300 mg/kg-day
NOAEL ([1]; subchronic, duration: 13 weeks, oral, gavage, M/F, Sprague-Dawley, clinical chemistry): 300 mg/kg-day
NOAEL ([1]; subchronic, duration: 13 weeks, oral, gavage, M/F, Sprague-Dawley, organ weight): 300 mg/kg-day

COc1cc(/C=C/C(=O)CC(=O)/C=C/c2ccc(O)c(OC)c2)ccc1O [Curcumin]
NOAEL ([1]; reproduction developmental, duration: 24 weeks, oral, diet, M/F, body weight): ≥ 250 mg/kg-day

CCC(C)(C)c1ccc(O)c(C(C)(C)CC)c1 [2,4-Di-tert-pentylphenol]
NOAEL ([1]; subchronic, duration: 90 days, oral, M/F, Wistar, histopathology: nonneoplastic): 5 mg/kg-day

O=c1ccc2ccccc2o1 [Coumarin]
NOAEL ([2]; chronic, duration: 2 years, Dog Other, histopathology: nonneoplastic): 10 mg/kg-day

Cc1occc1SSSSc1ccoc1C [Bis(2-methyl-3-furyl) tetrasulfide]
NOAEL ([1]; subchronic, duration: 90 days, oral, diet, M/F, Wistar, no effects): 0.56 mg/kg-day

COC(=O)CCSCc1ccco1 [Methyl 3-{[(furan-2-yl)methyl]sulfanyl}propanoate]
NOAEL ([1]; subchronic, duration: 90 days, oral, diet, M/F, clinical chemistry): 5.78 mg/kg-day

OC1CSC(O)CS1 (stereo unspecified) [1,4-Dithiane-2,5-diol]
NOAEL [1, 4]: 3.14 mg/kg-day

CCC1SSC(CC)S1 (stereo unspecified) [3,5-Diethyl-1,2,4-trithiolane]
NOAEL [1, 4]: 0.2 mg/kg-day

CCCCCCCCCCCCCCCCCC(=O)OC(C)C(=O)OC(C)C(=O)[O-].CCCCCCCCCCCCCCCCCC(=O)OC(C)C(=O)OC(C)C(=O)[O-].[Ca+2] (stereo unspecified) [Calcium stearoyl-2-lactylate]
NOAEL ([1]; chronic, duration: 1 years, M/F, Wistar, no effects): 2200 mg/kg-day

CCOC(=O)c1ccoc1-c1ccccc1 [3-Furancarboxylic acid, 2-phenyl-, ethyl ester]
NOEL ([1]; subchronic, duration: 90 days, oral, diet): 13 mg/kg-day

CC1CCC2(O1)C(C)(C)CCCC2(C)O (stereo unspecified) [6-Hydroxydihydrotheaspirane]
NOAEL ([1]; subchronic, duration: 90 days, oral, diet, M/F, Crj:CD, food efficiency): 52 mg/kg-day

O=C([O-])c1cc(C(=O)[O-])c2c(n1)C(=O)C(=O)c1cc(C(=O)O)[nH]c1-2.[Na+].[Na+]
NOAEL ([1]; subchronic, duration: 90 days, oral, gavage, M/F, Crj:CD): 100 mg/kg-day

CCCCC/C=C/C=C/C(=O)NCC(C)C [(E,E)-N-(2-Methylpropyl)-2,4-decadienamide]
NOAEL ([1]; subchronic, duration: 90 days, oral, diet, M/F, Sprague-Dawley, histopathology: nonneoplastic): 10 mg/kg-day

C=C(C)c1ccc(C)cc1 [1-Methyl-4-(prop-1-en-2-yl)benzene]
NOAEL ([1]; subchronic, duration: 90 days): 0.625 mg/kg-day

CC(C)CC(=O)N1CCC[C@H](COc2cccc3c2C(N)=NS(=O)(=O)N3)C1
NOAEL ([1]; reproduction developmental, duration: 15 days, oral, gavage, no effects): 1000 mg/kg-day
NOAEL ([1]; subchronic, duration: 13 weeks, oral, diet, M/F, no effects): 100 mg/kg-day

CCCOC(=O)c1cc(O)c(O)c(O)c1 [Gallic acid n-propyl ester]
NOAEL ([1]; subchronic, duration: 13 weeks, oral, diet, M/F, clinical chemistry): 1910 mg/kg-day
NOAEL ([1]; subchronic, duration: 90 days, oral, diet, M/F, hematological): 135 mg/kg-day

CC1=C(O)C(=O)C(C)O1 (stereo unspecified) [4-Hydroxy-2,5-dimethyl-3(2H)furanone]
NOAEL ([1]; chronic, duration: 2 years, M/F, body weight): 200 mg/kg-day
NOAEL ([1]; chronic, duration: 2 years, oral, diet, M/F, Sprague-Dawley, body weight): 200 mg/kg-day

c1ccc2cnccc2c1 [Isoquinoline]
NOAEL ([1]; subchronic, duration: 90 days, oral, gavage, M/F, Sprague-Dawley, no effects): 3 mg/kg-day

CC(C)(CO)[C@@H](O)C(=O)NCCC(=O)NCCSSCCNC(=O)CCNC(=O)[C@H](O)C(C)(C)CO [Pantethine]
NOAEL ([1]; chronic, duration: 54 weeks, M/F, clinical chemistry): 36 mg/kg-day

CC(=O)CSCc1ccco1 [1-(2-Furfurylthio)propanone]
NOAEL [1, 8]: 3.76 mg/kg-day

Clc1ccc(-c2ccc(Cl)cc2Cl)cc1 [2,4,4'-Trichlorobiphenyl]
NOAEL [1, 5]: 0.4 mg/kg-day

CC(O)CO (stereo unspecified) [1,2-Propylene glycol]
NOEL ([1]; chronic, duration: 2 years): 2500 mg/kg-day

[Cr+3] [Chromium (III)]
NOAEL ([1]; chronic, duration: 2 years, oral, diet, M/F, Fischer 344, histopathology: neoplastic): 286 mg/kg-day

CC1S[C@H](C)N[C@H](C)S1 (stereo partly specified) [Thialdine]
NOAEL ([1]; subchronic, duration: 90 days, oral, diet, M, histopathology: nonneoplastic): 9.3 mg/kg-day

CCOC(=O)C1OC1(C)c1ccc(C)cc1 (stereo unspecified) [Ethyl 3-methyl-3-(4-methylphenyl)oxirane-2-carboxylate]
NOAEL [1, 7]: 35 mg/kg-day

CC(C)=O [Acetone]
NOAEL ([1]; subchronic, duration: 90 days, oral, drinking water): 900 mg/kg-day

Cc1cc2nc3c(=O)[nH]c(=O)nc-3n(C[C@H](O)[C@H](O)[C@H](O)COP(=O)([O-])O)c2cc1C.[Na+] [Riboflavin 5'-(dihydrogen phosphate), sodium salt (1:1)]
NOAEL ([1]; subchronic, duration: 90 days, M/F, Wistar, no effects): 160 mg/kg-day

SCCCCCCCCS [1,8-Octanedithiol]
NOAEL [1, 4]: 0.705 mg/kg-day

COc1cc(CCCS(=O)(=O)[O-])ccc1OC(Cc1cccc(OC)c1O)CS(=O)(=O)[O-].[Ca+2] (stereo unspecified) [Lignosulfonic acid, calcium salt]
NOAEL [1, 6]: 2000 mg/kg-day

Cc1occc(=O)c1O [Maltol]
NOEL ([1]; chronic, duration: 2 years, oral, diet): 100 mg/kg-day

Clc1cc2c(cc1Cl)Oc1cc(Cl)c(Cl)cc1O2 [2,3,7,8-Tetrachlorodibenzo-p-dioxin]
LOAEL ([1]; reproduction developmental, injection, subcutaneous, Wistar, behavior): 2.5e-05 mg/kg-day

CC(S)C(C)S (stereo unspecified) [2,3-Butanedithiol]
NOAEL [1, 4]: 0.703 mg/kg-day

O=C([O-])c1[nH]n(-c2ccc(S(=O)(=O)[O-])cc2)c(=O)c1N=Nc1ccc(S(=O)(=O)[O-])cc1.[Na+].[Na+].[Na+] [C.I. Acid Yellow 23]
NOAEL ([1]; chronic, M, body weight): 984 mg/kg-day

CC(C)=CC(=O)SC(C)C [2-Butenethioic acid, 3-methyl-, S-(1-methylethyl) ester]
NOAEL ([1]; subchronic, duration: 90 days, oral): 6.63 mg/kg-day

CC(=O)c1cccc2ccccc12 [1'-Acetonaphthone]
NOAEL [1, 8]: 33 mg/kg-day
